Results reported in US20240279600A1, “COMPOSITIONS AND METHODS FOR PROMOTING IN VITRO MATURATION OF CELLS” (MEMORIAL SLOAN-KETTERING CANCER CENTER, priority 2021, published 2024).
“Also recorded” adds a separate entry of the source.

Tests used:
Type in all cases: cell-based, human
[1] = system: hPSC-derived cortical neurons; assay: High-content maturity assay / chemical screen in hPSC-derived cortical neurons; details: for dose-response validation, mean of 4 maturity parameters normalized to DMSO (mean maturation score): 30 nM-10,000 nM, nuclear size and roundness, neurite length, KCl-induced FOS/EGR1+ cells; for number of cells (cell viability / neuron survival): with respect to DMSO, treatment days 7-14, day 21
From the text: The phenotypic complexity of neurons makes single-readout assays unsuitable to fully capture maturation stages. Therefore, a multi-phenotype approach (via high-content screening, HCS) (Boutros M., Heigwer F. & Laufer C. Cell vol. 163 1314-1325 (2015)) was used to design an assay that simultaneously monitors distinct features of neuronal maturation (FIG. 1A). Dendritic outgrowth is a widely used parameter of neuron maturity (Wu, G. Y. et al., J. Neurosci. 19, 4472-4483 (1999)) and can be monitored through automated tracing of microtubule-associated protein 2 (MAP2) immunostaining (FIGS. 1B and 1C). Changes in nuclear size and morphology are also characteristic of neuron development and maturation (Ito K. & Takizawa T., Frontiers in Genetics vol. 9 (2018)) and can be tracked via DAPI counterstaining (FIGS. 1B and 1C). As an indirect measurement of neuronal function and excitability, the nuclear expression of immediate early gene (IEG) products FOS and EGR1 were quantified following 2 hours of potassium chloride (KCl) stimulation (FIGS. 1B and 1D). IEGs are defined by their rapid induction in the absence of de-novo protein synthesis by stimuli that include sustained membrane depolarization in neurons (Sheng M. & Greenberg M. E., Neuron vol. 4 477-485 (1990)). In contrast to more traditional measures of neuronal activity such as calcium imaging and electrophysiology, IEG immunoreactivity is readily scalable as a readout for thousands of treatment conditions. However, IEGs can be triggered by stimuli other than neuronal activity including growth factor signaling (Greenberg M. E. & Ziff E. B., Nature 311, 433-438 (1984)) and cellular stress responses (Murai J. et al., Cell Rep. 30, 4137-4151.e6 (2020)). Therefore, to avoid direct activation of IEGs, transient compound treatment (day 7-14) was used and all measurements were performed after rinsing of compounds followed by culture in compound-free medium for an additional 7 days (day 14-21) prior to analysis (FIG. 1A). Furthermore, IEGs under both basal and KCl-stimulated conditions were recorded to specifically determine the depolarization-induced signal by subtracting baseline from KCl-induced responses. Measuring maturation readouts only after compound withdrawal enabled the identification of compounds that trigger a long-lasting “memory” of a maturation stimulus even after compound removal.
The present maturity assay was then applied to screen a library of 2688 bioactive compounds in hPSC-derived cortical neurons (FIG. 6A). The library was applied at 5 μM and standard scores (z-scores) of duplicate screen runs were averaged for analysis. Viability was determined by quantifying intact nuclei, and 325 toxic compounds with a z-score below −2 were excluded from further analysis (FIG. 6B). For HCS hit selection, principal component analysis (PCA) was applied to 6 maturity z-scores to identify patterns of distribution among compounds, avoiding single threshold hit discrimination (Singh S. et al., Journal of Biomolecular Screening vol. 19 640-650 (2014)) (FIG. 1E, left panel). The 6 parameters were: nuclear size and roundness, total neurite length and branching (number of segments per cell), and fractions of KCl-induced FOS+ and EGR1+ cells. Three phenotypic clusters of compounds were identified by PCA: maturation enhancers (hits); maturation suppressors, consisting mostly of inhibitors of the PI3K/AKT/mTOR axis; and inducers of non-neuronal contaminant proliferation, which were highly enriched in TGF-β signaling inhibitors as well as inhibitors of rho-associated protein kinase (ROCK) and other signaling pathways (FIG. 1E, right panel).
A bioactive compound library containing 2688 compounds was used for screening at a concentration of 5 μM (Selleck Bioactive Library, Selleck Chemicals). 192 DMSO wells contained within the library were used as negative controls. […]

[2] = system: hPSC-derived cortical neurons from treated NPC; assay: Western blot for maturation markers after transient inhibition of chromatin regulators in NPC; details: NPC treated d12 to d20, neurons analysed d35, versus DMSO
[3] = system: hPSC-derived cortical neurons from treated NPC; assay: Ca2+ imaging (GCaMP6m) after transient inhibition of chromatin regulators in NPC; details: NPC treated d12 to d20, imaging d40, versus DMSO

COC(=O)C1=C(C)NC(C)=C([N+](=O)[O-])C1c1ccccc1C(F)(F)F (stereo not drawn) [Bay K 8644, methyl 2,6-dimethyl-5-nitro-4-[2-(trifluoromethyl)phenyl]-1,4-dihydropyridine-3-carboxylate]
dose-response validation, mean of 4 maturity parameters normalized to DMSO (mean maturation score) [1]: confirmed hits
number of cells (cell viability / neuron survival) [1]: did not significantly affect neuron survival

CC(C)N(C[C@H]1O[C@@H](n2cnc3c(N)ncnc32)[C@H](O)[C@@H]1O)[C@H]1C[C@@H](CCc2nc3cc(C(C)(C)C)ccc3[nH]2)C1 [EPZ-5676, (2R,3R,4S,5R)-2-(6-aminopurin-9-yl)-5-[[[3-[2-(6-tert-butyl-1H-benzimidazol-2-yl)ethyl]cyclobutyl]-propan-2-ylamino]methyl]oxolane-3,4-dioland]
dose-response validation, mean of 4 maturity parameters normalized to DMSO (mean maturation score) [1]: confirmed hits
number of cells (cell viability / neuron survival) [1]: did not significantly affect neuron survival

COc1cc2c(NC3CCN(C(C)C)CC3)nc(C3CCCCC3)nc2cc1OCCCN1CCCC1 [UNC0638, 2-cyclohexyl-6-methoxy-N-(1-propan-2-ylpiperidin-4-yl)-7-(3-pyrrolidin-1-ylpropoxy)quinazolin-4-amine]
expression of the maturation markers Nefh and Stx1a [2]: robust increased expression
synchronicity of the neuronal network (synchronous firing rate) [3]: significant changes

N[C@H]1C[C@@H]1c1ccc(-c2cccc(O)c2)cc1 [OG-L002]
dose-response validation, mean of 4 maturity parameters normalized to DMSO (mean maturation score) [1]: confirmed hits

CCCc1cc(C)[nH]c(=O)c1CNC(=O)c1cc(-c2ccnc(N3CCN(C)CC3)c2)cc2c1cnn2C(C)C [GSK343, N-[(6-methyl-2-oxo-4-propyl-1H-pyridin-3-yl)methyl]-6-[2-(4-methylpiperazin-1-yl)pyridin-4-yl]-1-propan-2-ylindazole-4-carboxamide]
expression of the maturation markers Nefh and Stx1a [2]: robust increased expression
amplitude of individual Ca2+ spikes [3]: marked and highly significant increase
frequency of individual Ca2+ spikes [3]: marked and highly significant increase
synchronicity of the neuronal network (synchronous firing rate) [3]: marked and highly significant increase

O=C(O)c1ccc(CN2CCC(CN[C@@H]3C[C@H]3c3ccccc3)CC2)cc1 [GSK2879552, 4-[[4-[[[(1R,2S)-2-phenylcyclopropyl]amino]methyl]piperidin-1-yl]methyl]benzoic acid]
dose-response validation, mean of 4 maturity parameters normalized to DMSO (mean maturation score) [1]: stronger combined effect than OG-L002; also recorded: confirmed hits
number of cells (cell viability / neuron survival) [1]: did not significantly affect neuron survival

CC(C)N(CCCNC(=O)Nc1ccc(C(C)(C)C)cc1)C[C@H]1O[C@@H](n2ccc3c(N)ncnc32)[C@H](O)[C@@H]1O [EPZ004777, 1-[3-[[(2R,3S,4R,5R)-5-(4-aminopyrrolo[2,3-d]pyrimidin-7-yl)-3,4-dihydroxyoxolan-2-yl]methyl-propan-2-ylamino]propyl]-3-(4-tert-butylphenyl)urea]
expression of the maturation markers Nefh and Stx1a [2]: robust increased expression
synchronicity of the neuronal network (synchronous firing rate) [3]: modest functional enhancement with an increased synchronous firing rate
